According to patent US20100272675A1, “METHOD OF ADMINISTERING CONJUGATES” (ENDOCYTE, INC., priority 2007, published 2010):

Tests used:
[1] = test system: 4T1c2 cells (a breast tumor cell line); experiment: Effect of ligand conjugates on tumor volume for mice with breast tumor implants; type: in vivo
Procedure: Two regimens were tested. In the first regimen, six to eight-week old (˜20-22 grams) female Balb/c mice were immunized with fluorescein isothiocyanate (FITC)-labeled keyhole limpet hemocyanin (KLH; see FIG. 5) at 35 μg/dose using a saponin adjuvant (e.g., GPI-0100; 100 μg/dose) at days 1, 15, and 29. On day 23, each animal was injected with 2.5×10^5 4T1c2 cells (a breast tumor cell line). Cancer loci were then allowed to grow. From days 42-60, all animals were injected daily ((qd×5)3; days 42-46, 49-53, and 56-60) with either phosphate buffered saline (PBS) or 500 nmol/kg of FITC-conjugated to folic acid via a gamma carboxyl-linked ethylene diamine bridge (see FIG. 4). The animals were injected on the same days with 20,000 U/dose of recombinant human IL-2. The animals were injected (TIW)3 with IL-2 in the same weeks as the animals were injected with folate-FITC.
In the second regimen, six to eight-week old (˜20-22 grams) female Balb/c mice were immunized with fluorescein isothiocyanate (FITC)-labeled keyhole limpet hemocyanin (KLH) at 35 μg/dose using a saponin adjuvant (e.g., GPI-0100; 100 μg/dose) at days 1, 15, and 29. On day 5, each animal was injected with 2.5×10^5 4T1c2 cells. Cancer loci were then allowed to grow. From days 8-50, all animals were injected daily ((qd×5)6) with either phosphate buffered saline (PBS) or 500 nmol/kg of FITC-conjugated to folic acid via a gamma carboxyl-linked ethylene diamine bridge. The animals were injected daily on days 32-50 with 20,000 U/dose of recombinant human IL-2. The animals were injected (TIW)3 with IL-2 in the same weeks as the animals were injected with folate-FITC.
The efficacy of this immunotherapy was then evaluated by monitoring tumor volume as a function of time for folate-FITC treated mice compared to control animals.

[2] = Active systemic anaphylaxis assay in guinea pigs immunized against EC90 plus GPI-0100 adjuvant; type: in vivo; details: guinea pigs immunized days 1, 8, 15 with EC90 plus 0.5 mg GPI-0100; de-sensitized days 8-12 and 15-19 with EC17 spiked with 10% (mole) Bis-FITC-eda; s.c. challenge day 22
Procedure: Male and female guinea pigs (1 per sex per group) were immunized three times, on Days 1, 8, and 15, with various doses of EC90 plus 0.5 mg GPI-0100. A single dose of test article (EC17+/− Bis-FITC-eda) was administered (s.c.) on Day 22. Guinea pigs were de-sensitized with multiple doses of EC 17 spiked with 10% (mole) Bis-FITC-eda on Days 8-12, and 15-19. On Day 22, these animals were s.c. challenged with the same EC17/Bis-FITC-eda formulation. Clinical observations were generally taken for 1.5-2 hours post challenge. […] Complete macroscopic postmortem examinations were performed on all animals (FIG. 9).

SMILES: Nc1nc2ncc(CNc3ccc(C(=O)NC(CCC(=O)NCCNC(=S)Nc4ccc(-c5c6ccc(=O)cc-6oc6cc(O)ccc56)c(C(=O)O)c4)C(=O)O)cc3)nc2c(=O)[nH]1 (stereo not shown) [EC17]
- tumor volume as a function of time compared to control animals ([1]; Balb/c mice immunized with KLH-FITC 35 μg/dose + GPI-0100 100 μg/dose, folate-FITC 500 nmol/kg daily plus IL-2 20,000 U/dose, early or late dosing protocol): decreased
- effect on tumor volume, early dosing protocol ([1]; folate-FITC 500 nmol/kg daily (qd×5)6 from days 8-50, IL-2 20,000 U/dose days 32-50): effective in decreasing tumor volume
- tumor volume, early versus late dosing protocol ([1]; folate-FITC 500 nmol/kg, late: days 42-60, early: days 8-50, plus IL-2): similar
- allergenicity (signs of anaphylaxis after s.c. challenge), effect of early dosing [2]: reduces allergenicity
